Source: ChEMBL document CHEMBL5537110, “SIRT1-dependent mitochondrial biogenesis supports therapeutic effects of 4-butyl-polyhydroxybenzophenone compounds against NAFLD” (Eur J Med Chem, 2023)
Activity calls are given as the source filed them.

Tests used:
EA.hy 926 = assay: Cytoprotective activity against H2O2-induced toxicity in human EA.hy 926 cells assessed as protective rate at 10 uM pretreated with compound for 4 hrs followed by incubation with H2O2 for 2 hrs by absorbance based analysis; type: functional; settings: time 6 hrs
[1] = target: T1, NAD-dependent protein deacetylase sirtuin-1 (Homo sapiens) (UniProt Q96EB6); assay: (§1) Binding affinity to SIRT1 (unknown origin) by surface plasmon resonance assay; settings: filed as activator
T1 sequence (whole entry): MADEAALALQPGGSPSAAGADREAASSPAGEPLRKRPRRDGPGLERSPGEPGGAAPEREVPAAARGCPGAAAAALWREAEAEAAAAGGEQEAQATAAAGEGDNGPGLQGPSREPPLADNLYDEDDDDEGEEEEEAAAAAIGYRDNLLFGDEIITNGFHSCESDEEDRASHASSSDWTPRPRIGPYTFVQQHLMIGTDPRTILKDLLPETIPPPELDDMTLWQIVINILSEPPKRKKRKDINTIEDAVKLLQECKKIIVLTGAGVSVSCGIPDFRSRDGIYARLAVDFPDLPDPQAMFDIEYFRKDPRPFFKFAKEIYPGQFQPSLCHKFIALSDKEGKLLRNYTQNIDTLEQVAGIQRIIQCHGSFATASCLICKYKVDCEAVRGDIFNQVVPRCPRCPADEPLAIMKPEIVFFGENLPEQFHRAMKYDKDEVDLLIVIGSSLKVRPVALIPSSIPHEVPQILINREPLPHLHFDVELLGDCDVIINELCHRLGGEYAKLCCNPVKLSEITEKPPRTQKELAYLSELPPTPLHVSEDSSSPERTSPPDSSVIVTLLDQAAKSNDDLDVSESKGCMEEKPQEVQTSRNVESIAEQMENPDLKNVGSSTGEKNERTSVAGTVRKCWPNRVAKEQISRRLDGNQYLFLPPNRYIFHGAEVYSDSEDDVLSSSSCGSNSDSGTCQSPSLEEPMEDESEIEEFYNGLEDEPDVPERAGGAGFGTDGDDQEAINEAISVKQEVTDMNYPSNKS

[2] = target: T2, NAD-dependent protein deacetylase sirtuin-1 (Homo sapiens, UniProt Q96EB6); assay: as §1
T2 sequence (Q96EB6 whole entry): T1 sequence (whole entry)

[3] = target: T3, Peroxisome proliferator-activated receptor gamma coactivator 1-alpha (Homo sapiens) (UniProt Q9UBK2); assay: (§2) Binding affinity to PGC1alpha (unknown origin) by surface plasmon resonance assay; settings: filed as activator
T3 sequence (whole entry): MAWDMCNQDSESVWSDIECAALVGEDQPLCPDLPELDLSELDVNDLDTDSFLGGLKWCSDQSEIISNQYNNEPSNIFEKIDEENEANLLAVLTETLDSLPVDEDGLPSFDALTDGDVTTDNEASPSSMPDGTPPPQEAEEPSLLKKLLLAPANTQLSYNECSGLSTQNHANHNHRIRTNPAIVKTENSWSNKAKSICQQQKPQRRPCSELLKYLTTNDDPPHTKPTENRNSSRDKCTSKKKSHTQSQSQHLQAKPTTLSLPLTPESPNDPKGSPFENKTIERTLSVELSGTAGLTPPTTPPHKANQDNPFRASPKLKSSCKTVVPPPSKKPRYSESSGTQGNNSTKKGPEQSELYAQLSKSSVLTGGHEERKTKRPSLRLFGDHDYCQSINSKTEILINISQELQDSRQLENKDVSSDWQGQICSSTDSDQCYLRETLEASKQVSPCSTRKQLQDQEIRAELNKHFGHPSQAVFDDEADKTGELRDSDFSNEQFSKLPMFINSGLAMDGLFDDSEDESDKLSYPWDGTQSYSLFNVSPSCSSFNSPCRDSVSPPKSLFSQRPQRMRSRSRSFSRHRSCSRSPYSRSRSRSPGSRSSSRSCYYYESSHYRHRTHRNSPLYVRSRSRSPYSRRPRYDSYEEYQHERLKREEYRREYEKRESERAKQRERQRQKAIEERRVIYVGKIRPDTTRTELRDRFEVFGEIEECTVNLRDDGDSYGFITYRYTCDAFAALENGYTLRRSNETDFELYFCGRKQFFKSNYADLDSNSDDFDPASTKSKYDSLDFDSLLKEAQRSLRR

[4] = target: T4, Peroxisome proliferator-activated receptor gamma coactivator 1-alpha (Homo sapiens, UniProt Q9UBK2); assay: as §2
T4 sequence (Q9UBK2 whole entry): T3 sequence (whole entry)

Mitochondria = assay: Inhibition of mitochondrial dysfunction in 40% FBS-induced steatosis human HepG2 cells model assessed as decrease in lipid vesicle droplets at 5 uM incubated for 24 hrs by transmission electron microscopy; type: functional
HepG2 [5] = assay: Recovery of mitochondrial biogenesis in 40% FBS-induced steatosis human HepG2 cells model assessed as increase in mitochondrial COX1 mRNA expression incubated for 24 hrs by qRT-PCR analysis; type: functional, cell-based; settings: dose 0.2-5 µM
HepG2 [6] = assay: Inhibition of liver injury in 40% FBS-induced steatosis human HepG2 cells model assessed as decrease in GDH level at 0.2 to 5 uM incubated in steatosis inducing DMEM with 40% FBS medium for 24 hrs followed by compound treatment; type: functional, cell-based; settings: dose 0.2-5 µM
HepG2 [7] = assay: Inhibition of liver injury in 40% FBS-induced steatosis human HepG2 cells model assessed as decrease in AST level at 0.2 to 5 uM incubated with compound for 24 hrs followed by replacement with steatosis inducing DMEM with 40% FBS medium; type: functional, cell-based; settings: dose 0.2-5 µM
HepG2 [8] = assay: Inhibition of liver injury in 40% FBS-induced steatosis human HepG2 cells model assessed as decrease in LDH level at 0.2 to 5 uM incubated with compound for 24 hrs followed by replacement with steatosis inducing DMEM with 40% FBS medium; type: functional, cell-based; settings: dose 0.2-5 µM
Rattus norvegicus [9] = assay: Hepatoprotective activity against high fat diet-fed NAFLD Sprague-Dawley rat model assessed as inhibition of diet-induced body weight gain administered intragastrically via gavage for 4 weeks; type: functional, organism-based; settings: dose 12.3-61.4 mg/kg, route ig
Rattus norvegicus [10] = assay: Hepatoprotective activity against high fat diet-fed NAFLD Sprague-Dawley rat model assessed as decrease in serum AST level at 12.3 to 61.4 mg/kg, IG administered via gavage for 4 weeks; type: functional, organism-based; settings: dose 12.3-61.4 mg/kg

CC(C)(C)c1ccc(C(=O)c2ccc(O)c(O)c2)cc1
172 µM: Kd [4]
87.46%: Activity (EA.hy 926)
active: Activity [1] Dose-Dependent Effect | Activity [3] Dose-Dependent Effect | inhibition (Mitochondria) | Activity (HepG2 [5]) Dose-Dependent Effect | inhibition (HepG2 [6]) | inhibition (HepG2 [7]) | inhibition (HepG2 [8]) | Activity (Rattus norvegicus [9]) Dose-Dependent Effect | Activity (Rattus norvegicus [10])
77.3 µM: Kd [2]
